A short description of this test: Flavorist panel evaluation of aged artificially sweetened beverage with added chlorogenic acid. Type of test: in vivo. As to conditions: final concentration 0.003% w/v; compared to untreated beverage; six member panel of trained flavorists. As for the experimental part:
An artificially sweetened beverage is prepared by mixing 1.4 g aspartame, 0.9 g acesulfame K, 6 ml sodium benzoate (25%^w/v in water), 1.3 ml phosphoric acid (85%^w/v), and 0.5 ml citric acid (50%^w/v in water). The volume of the mixture is adjusted to 1000 ml with water. The beverage mixture is aged for three weeks at 34° C.
A 2.8%^w/w solution of a commercially available synthetic chlorogenic acid (>95% pure (1,3,4,5-tetrahydroxy-cyclohexanecarboxylic acid 3-[3,4-dihydroxycinnamate]), Sigma Chemical Co., St. Louis, Mo.), in water, pH 5.6, is added to a portion of the aged beverage to a final concentration of 0.003%^w/v. The beverage containing chlorogenic acid is evaluated and compared to the untreated beverage by a six member panel of trained flavorists. The beverage containing the commercial chlorogenic acid is judged by the panel to display markedly less of the metallic, slightly bitter aftertaste found in the aged artificially sweetened beverage.
To another portion of the artificially sweetened beverage prepared as described in the first paragraph of Example 6, an aqueous solution of chlorogenic acid from the powdered extract of green coffee beans is added to a final concentration of 0.003%^w/v chlorogenic acid. This beverage is evaluated by the same flavorist panel as described in Example 6. […]

`O=C(C=Cc1ccc(O)c(O)c1)OC1CC(O)(C(=O)O)CC(O)C1O` (stereo not shown) [synthetic chlorogenic acid, 1,3,4,5-tetrahydroxy-cyclohexanecarboxylic acid 3-[3,4-dihydroxycinnamate]]: the “metallic, slightly bitter aftertaste found in the aged artificially sweetened beverage” value is given as “markedly less”.
